Reference: patent US20020111340A1, “Aminoalkoxybiphenylcarboxamides as histamine-3 receptor ligands and their therapeutic applications” (priority 2000, published 2002)

These compounds were tested against T1, histamine-3 receptor (Rattus norvegicus, UniProt Q9QYN8) (assay: Histamine-3 receptor binding, displacement of (3H)-N-α-methylhistamine from rat cortical membranes). Settings: male Sprague-Dawley rat brain cortical membranes; (3H)-N-α-methylhistamine ~0.6 nM; 30 minutes at 25° C.; Cheng-Prusoff.
T1 construct: Rat cortical membranes (12 mg wet weight/tube) were incubated with; from tissue; host or cells: male Sprague-Dawley rat brain cortex membranes
T1 sequence (Q9QYN8 whole entry): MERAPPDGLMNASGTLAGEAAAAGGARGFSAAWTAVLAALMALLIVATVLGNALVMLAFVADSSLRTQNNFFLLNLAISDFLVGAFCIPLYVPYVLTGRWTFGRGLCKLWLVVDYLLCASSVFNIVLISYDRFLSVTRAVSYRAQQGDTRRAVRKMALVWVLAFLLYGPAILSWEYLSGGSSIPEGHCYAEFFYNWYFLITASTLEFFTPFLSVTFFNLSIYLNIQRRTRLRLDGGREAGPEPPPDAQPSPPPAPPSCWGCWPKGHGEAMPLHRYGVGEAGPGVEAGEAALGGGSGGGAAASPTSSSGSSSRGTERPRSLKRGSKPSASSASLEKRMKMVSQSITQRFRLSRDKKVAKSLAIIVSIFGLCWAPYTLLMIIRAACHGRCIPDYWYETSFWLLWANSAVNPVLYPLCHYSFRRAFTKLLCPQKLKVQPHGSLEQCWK

Row | Ki | Compound
1 | 2.84 nM | CC(C)NC(=O)c1ccc(-c2ccc(OCCCN3[C@H](C)CC[C@H]3C)cc2)cc1 [Example 1, 4′-{3-[(2R,5R)-2,5-dimethylpyrrolidinyl]propoxy}-N-isopropyl[1,1′-biphenyl]-4-carboxamide]
2 | 1 nM | CC1CCCN1C(=O)c1ccc(-c2ccc(OCCCN3[C@H](C)CC[C@H]3C)cc2)cc1 (stereo partly drawn) [Example 3, (2R,5R)-2,5-dimethyl-1-[3-({4′-[(2-methyl-1-pyrrolidinyl)carbonyl][1,1′-biphenyl]-4-yl}oxy)propyl]pyrrolidine]
3 | 507 nM | CC(C)NCCCOc1ccc(-c2ccc(C(=O)N3[C@H](C)CC[C@H]3C)cc2)cc1 [Example 4, 3-[(4′-{[(2R,5R)-2,5-dimethylpyrrolidinyl]carbonyl}[1,1′-biphenyl]-4-yl)oxy]-N-isopropyl-1-propanamine]
4 | 13.8 nM | CCN(CC)CCCOc1ccc(-c2ccc(C(=O)N3[C@H](C)CC[C@H]3C)cc2)cc1 [Example 5, 3-[(4′-{[(2R,5R)-2,5-dimethylpyrrolidinyl]carbonyl}[1,1′-biphenyl]-4-yl)oxy]-N,N-diethyl-1-propanamine]
5 | 3.66 nM | CC1CCN(CCCOc2ccc(-c3ccc(C(=O)N4[C@H](C)CC[C@H]4C)cc3)cc2)CC1 [Example 7, 1-{3-[(4′-{[(2R,5R)-2,5-dimethylpyrrolidinyl]carbonyl}[1,1′-biphenyl]-4-yl)oxy]propyl}-4-methylpiperidine]
6 | 114 nM | C[C@@H]1CC[C@@H](C)N1C(=O)c1ccc(-c2ccc(OCCCN3CCOCC3)cc2)cc1 [Example 8, 4-{3-[(4′-{[(2R,5R)-2,5-dimethylpyrrolidinyl]carbonyl}[1,1′-biphenyl]-4-yl)oxy]propyl}morpholine]
7 | 2.63 nM | CC1CCN(C(=O)c2ccc(-c3ccc(OCCCN4[C@H](C)CC[C@H]4C)cc3)cc2)CC1 [Example 9, 1-[(4′-{3-[(2R,5R)-2,5-dimethylpyrrolidinyl]propoxy}[1,1′-biphenyl]-4-yl)carbonyl]-4-methylpiperidine]
8 | 363 nM | C[C@H](c1ccccc1)N(C)CCCOc1ccc(-c2ccc(C(=O)N3CCCC3)cc2)cc1 [Example 11, N-methyl-N-[(1R)-1-phenylethyl]-N-(3-{[4′-(1-pyrrolidinylcarbonyl)[1,1′-biphenyl]-4-yl]oxy}propyl)amine]
9 | 384 nM | CN(CCCOc1ccc(-c2ccc(C(=O)N3CCCC3)cc2)cc1)[C@@H]1CCN(Cc2ccccc2)C1 [Example 12, N-[(3R)-1-benzylpyrrolidinyl]-N-methyl-N-(3-{[4′-(1-pyrrolidinylcarbonyl)[1,1′-biphenyl]-4-yl]oxy}propyl)amine]
10 | 80 nM | O=C(c1ccc(-c2ccc(OCCCN3CCC[C@@H]3CO)cc2)cc1)N1CCCC1 [Example 13, [(2R)-1-(3-{[4′-(1-pyrrolidinylcarbonyl)[1,1′-biphenyl]-4-yl]oxy}propyl)pyrrolidinyl]methanol]
11 | 6.07 nM | O=C(c1ccc(-c2ccc(OCCCN3CCC[C@H]3CO)cc2)cc1)N1CCCC1 [Example 14, [(2S)-1-(3-{[4′-(1-pyrrolidinylcarbonyl)[1,1′-biphenyl]-4-yl]oxy}propyl)pyrrolidinyl]methanol]
12 | 7.18 nM | C[C@@H]1CCC[C@H](C)N1CCCOc1ccc(-c2ccc(C(=O)N3CCCC3)cc2)cc1 [Example 15, (2R,6S)-2,6-dimethyl-1-(3-{[4′-(1-pyrrolidinylcarbonyl)[1,1′-biphenyl]-4-yl]oxy}propyl)piperidine]
13 | 71.5 nM | O=C(c1ccc(-c2ccc(OCCCN3CCC[C@@H](O)C3)cc2)cc1)N1CCCC1 [Example 16, (3R)-1-(3-{[4′-(1-pyrrolidinylcarbonyl)[1,1′-biphenyl]-4-yl]oxy}propyl)-3-piperidinol]
